From ChEMBL document CHEMBL1152297, “Quantitative three dimensional structure linear interaction energy model of 5'-O-[N-(salicyl)sulfamoyl]adenosine and the aryl acid adenylating enzyme MbtA” (J Med Chem, 2008)

Biological target: T1, Salicyl-AMP ligase / salicyl-S-ArCP synthetase (Mycobacterium tuberculosis, UniProt P71716)
T1 sequence (P71716 whole entry): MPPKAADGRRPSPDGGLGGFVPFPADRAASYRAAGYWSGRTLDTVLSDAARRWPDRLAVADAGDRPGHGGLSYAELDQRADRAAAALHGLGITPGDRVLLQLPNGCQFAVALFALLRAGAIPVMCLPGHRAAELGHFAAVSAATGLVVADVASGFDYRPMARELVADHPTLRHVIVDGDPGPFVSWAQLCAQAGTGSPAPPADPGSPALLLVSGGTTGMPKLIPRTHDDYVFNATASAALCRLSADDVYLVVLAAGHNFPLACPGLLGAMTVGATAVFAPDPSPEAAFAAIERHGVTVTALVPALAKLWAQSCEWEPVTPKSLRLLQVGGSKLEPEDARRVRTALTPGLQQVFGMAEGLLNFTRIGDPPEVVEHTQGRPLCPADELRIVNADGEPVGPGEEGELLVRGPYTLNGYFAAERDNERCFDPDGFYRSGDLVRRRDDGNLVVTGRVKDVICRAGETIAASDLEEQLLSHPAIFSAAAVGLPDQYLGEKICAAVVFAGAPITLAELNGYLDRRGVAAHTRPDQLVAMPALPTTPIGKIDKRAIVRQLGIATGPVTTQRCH
Assay: Inhibition of Mycobacterium tuberculosis BAG RV143 MbtA expressed in Escherichia coli BL21 (DE3) assessed as ATP-[32P]PPi exchange by liquid scintillation counting
Settings: read-out: Ki(app)

Structure (SMILES) | Ki [µM]
Nc1ncnc2c1ncn2[C@@H]1O[C@H](CNS(=O)(=O)/C=C/c2ccccc2O)[C@@H](O)[C@H]1O | 143
Nc1ncnc2c1ncn2[C@@H]1O[C@H](COS(=O)(=O)CC(=O)c2ccccc2O)[C@@H](O)[C@H]1O | 3.3
Nc1ncnc2c1ncn2[C@@H]1O[C@H](CNS(=O)(=O)NC(=O)c2ccccc2O)[C@@H](O)[C@H]1O | 0.0038
Nc1ncnc2c1ncn2[C@@H]1C[C@H](COS(=O)(=O)NC(=O)c2ccccc2O)[C@@H](O)[C@H]1O | 0.0023
Nc1ncnc2c1ncn2[C@H]1C[C@H](O)[C@@H](COS(=O)(=O)NC(=O)c2ccccc2O)O1 | 0.0035
Nc1ncnc2c1ncn2[C@@H]1O[C@H](COS(=O)(=O)NC(=O)c2ccccc2O)C[C@H]1O | 0.0032
Nc1ncnc2c1ncn2[C@H]1C=C[C@@H](COS(=O)(=O)NC(=O)c2ccccc2O)C1 | 0.83
Nc1ncnc2c1ncn2[C@H]1CC[C@@H](COS(=O)(=O)NC(=O)c2ccccc2O)C1 | 0.061
Nc1ncnc2c1ncn2[C@@H]1O[C@H](COS(=O)(=O)NCc2ccccc2O)[C@@H](O)[C@H]1O | 0.41
